Assay [1] concerns the target T1, phosphorylated IRE1α (p-IRE1α) (Homo sapiens, UniProt O75460).
T1 construct: Human IRE1α kinase and RNase domain (residues 547–977) was subcloned into pLIB plasmid; His tag (with TEV cleavage site) (N, cleaved yes); made in house; host or cells: Sf9 insect cells, baculovirus (Bac-to-Bac)
Description: FRET-based IRE1α RNase activity assay, phosphorylated IRE1α. The class given is biochemical. The gist of the method: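 Sf9-expressed IRE1α kinase-RNase domain (residues 547–977), fully phosphorylated fraction, 4 nM, preincubated with compound 30 min at RT, then 200 nM FAM/BHQ1 XBP1 RNA added in HEPES pH 7.5 buffer. Fluorescence (ex 485/em 535 nm) read kinetically for 1 h at RT; inhibition from linear slopes, IC50 by concentration-response fit.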

Assay [2] has as its target IRE1α (ERN1) (Homo sapiens, UniProt O75460). Nature of the assay: LanthaScreen Eu kinase binding assay, IRE1α. As to the method:
LanthaScreen^TM Eu kinase binding assays were conducted by SelectScreen Kinase Profiling Services (Thermo Fisher) using Alexa Fluor conjugated kinase tracer, tagged kinase protein, and Eu-labeled anti-tag antibody. The binding of the tracer to the kinase will form the tracer-kinase complex, resulting in a high FRET signal with the Eu-labeled anti-tag antibody. Displacement of the tracer by a kinase inhibitor led to a decreased FRET signal. […] Buffer A containing 50 mM HEPES pH 7.5, 0.01% BRIJ-35, 10 mM MgCl2, and 1 mM EGTA was used.
Kinase profiling was conducted by the SelectScreen Kinase Profiling Services (Thermo Fisher), using Z′-LYTE, Adapta, or LanthaScreen Eu Kinase Binding Assay for different kinases. The kinome phylogenetic tree was generated using the KinMap web portal.
(In general: Time-resolved FRET reads energy transfer from a long-lived donor to a nearby acceptor.)

The target of assay [3] is T2, dephosphorylated IRE1α (547–977) (Homo sapiens, UniProt O75460).
T2 construct: Human IRE1α kinase and RNase domain (residues 547–977) was subcloned into pLIB plasmid; His tag (with TEV cleavage site) (N, cleaved yes); made in house; host or cells: Sf9 insect cells, baculovirus (Bac-to-Bac)
Nature of the assay: FRET-based IRE1α RNase activity assay, dephosphorylated IRE1α. The class given is biochemical. The gist of the method: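 Dephosphorylated human IRE1α (residues 547–977, Sf9-expressed, λ-phosphatase treated), 40 nM, preincubated 30 min with compound at room temperature, then 100 nM FAM/BHQ1 XBP1 RNA added in HEPES pH 7.5 buffer. Fluorescence (485/535 nm) read kinetically for 1 h; inhibition from linear-phase slopes versus DMSO, fitted to IC50.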

The target of assay [4] is T3, IRE1α (Homo sapiens, UniProt O75460).
T3 construct: Human IRE1α kinase and RNase domain (residues 547–977) was subcloned into pLIB plasmid; His tag (with TEV cleavage site) (N, cleaved yes); made in house; host or cells: Sf9 insect cells, baculovirus (Bac-to-Bac)
Nature of the assay: Differential scanning fluorimetry (DSF), IRE1α. The class given is binding. The conditions noted are these: Supplementary Fig. 3c, replicate values. The procedure:
The DSF assay was performed in PBS buffer containing 2 mM DTT, in a total reaction volume of 20 µl with indicated compounds (final 1% DMSO) and the final concentration of 1 µM IRE1α protein and 5× SYPRO Orange fluorescent dye (5000× in DMSO, Sigma S5692). The melting curve was measured at a temperature range from 25 °C to 95 °C and in increments of 1 °C for 30 s using a Bio-Rad CFX96 Real-Time PCR detection system with the FRET scan mode. The melting temperature (Tm) was obtained by fitting the melting curve to Boltzmann sigmoidal in GraphPad Prism and the thermal shift (∆Tm) was calculated by using the equation: ∆Tm = Tm(compound) -Tm(DMSO).
On the technique in general: Differential scanning fluorimetry follows unfolding on heating by fluorescence.

Setting [5] is: FRET assay at 50 μM, source data, 50 µM.
Where [6] appears, read: FRET assay, RNase activity, mean (± SEM), read-out: p-IRE1α IC50.
The mark [7] stands for this setting: FRET assay, source data, unit from Fig. 3, read-out: p-IRE1a IC50, individual replicates (n1-n4).
[8] abbreviates: FRET assay, RNase activity, mean (± SEM), read-out: IRE1α IC50.
[9] abbreviates: FRET assay, source data, unit from Fig. 3 / sheet Fig. 2b, read-out: IRE1a IC50, individual replicates (n1-n4).

Several values for one entry are separate records, joined by “and”; a condition that tells them apart may be missing. Equal entries are not always repeated. Where two headings read alike, the source gives them in different places.

T3 sequence (O75460 547-977): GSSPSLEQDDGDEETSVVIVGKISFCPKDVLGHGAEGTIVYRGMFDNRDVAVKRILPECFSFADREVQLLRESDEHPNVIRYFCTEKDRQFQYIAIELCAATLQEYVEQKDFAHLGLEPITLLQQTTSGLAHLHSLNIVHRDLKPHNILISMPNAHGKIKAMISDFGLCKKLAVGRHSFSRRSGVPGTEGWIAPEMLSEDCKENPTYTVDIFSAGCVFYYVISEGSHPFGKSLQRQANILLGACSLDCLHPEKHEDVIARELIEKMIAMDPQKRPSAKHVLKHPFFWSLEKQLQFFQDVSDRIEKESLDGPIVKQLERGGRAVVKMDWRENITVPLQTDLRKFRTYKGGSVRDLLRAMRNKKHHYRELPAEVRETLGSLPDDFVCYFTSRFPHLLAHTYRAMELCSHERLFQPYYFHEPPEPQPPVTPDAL
T1 sequence (O75460 547-977): as above
T2 sequence (O75460 547-977): as above
IRE1α (ERN1), sequence (O75460 19-977): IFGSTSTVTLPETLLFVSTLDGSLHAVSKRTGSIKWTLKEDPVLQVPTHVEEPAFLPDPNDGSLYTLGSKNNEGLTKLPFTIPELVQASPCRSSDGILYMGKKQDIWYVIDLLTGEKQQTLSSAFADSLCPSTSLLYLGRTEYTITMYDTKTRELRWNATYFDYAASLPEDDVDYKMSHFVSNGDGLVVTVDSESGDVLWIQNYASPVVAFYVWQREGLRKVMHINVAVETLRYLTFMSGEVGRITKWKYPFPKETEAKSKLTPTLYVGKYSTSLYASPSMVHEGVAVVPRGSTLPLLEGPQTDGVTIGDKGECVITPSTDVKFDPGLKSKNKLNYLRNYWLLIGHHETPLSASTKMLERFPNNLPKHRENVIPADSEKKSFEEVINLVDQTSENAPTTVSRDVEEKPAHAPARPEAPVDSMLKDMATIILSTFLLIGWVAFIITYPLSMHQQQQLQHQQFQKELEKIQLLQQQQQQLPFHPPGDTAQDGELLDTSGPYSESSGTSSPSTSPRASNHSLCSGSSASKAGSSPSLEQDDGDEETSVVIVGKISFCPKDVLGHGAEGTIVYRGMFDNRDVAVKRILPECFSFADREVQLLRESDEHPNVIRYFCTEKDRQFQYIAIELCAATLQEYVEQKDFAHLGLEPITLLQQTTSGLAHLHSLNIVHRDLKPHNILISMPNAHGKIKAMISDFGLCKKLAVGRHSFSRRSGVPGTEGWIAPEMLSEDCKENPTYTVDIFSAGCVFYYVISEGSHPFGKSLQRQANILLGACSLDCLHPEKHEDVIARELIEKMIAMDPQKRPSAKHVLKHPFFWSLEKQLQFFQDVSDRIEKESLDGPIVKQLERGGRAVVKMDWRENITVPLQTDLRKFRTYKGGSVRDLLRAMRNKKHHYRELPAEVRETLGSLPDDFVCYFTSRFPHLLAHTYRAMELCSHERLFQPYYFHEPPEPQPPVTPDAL

`COc1ccc2c(c1)c(CCC(=O)O)c(C)n2C(=O)c1ccc(S(=O)(=O)F)cc1` [IA06]: the IC50 in assay [1] (p-IRE1a IC50, individual replicates (n1-n4), FRET assay, source data, unit from Fig. 3) was 11.1 µM and 6.78 µM and 5.45 µM; in assay [1] (p-IRE1α IC50, FRET assay, RNase activity, mean (± SEM)) it was 7.79 µM; in assay [3] (IRE1a IC50, individual replicates (n1-n4), FRET assay, source data, unit from Fig. 3 / sheet Fig. 2b), 9.65 µM and 7.76 µM and 4.55 µM; in assay [3] (IRE1α IC50, FRET assay, RNase activity, mean (± SEM)) it was 7.32 µM. The inhibition at 50 µM in assay [2] (50 μM, read-out: kinase inhibition at highest tested concentration) turned out to be 23%; in assay [2] (Conc. 50000 nM, duplicates, read-out: IRE1a Kinase Displacement(%)), 17%.

Turning to `COc1ccc2c(c1)c(CCC(=O)O)c(C)n2C(=O)c1ccc2ccccc2c1` [IA034], the “IRE1 ∆Tm(°C)” value is 0.1 °C and -0.04 °C in assay [4] (compound 6.25 μM); 0.02 °C and -0.1 °C in assay [4] (compound 12.5 μM); 0.25 °C and 0 °C in assay [4] (compound 25 μM); -0.02 °C and 0 °C in assay [4] (compound 50 μM).

On to `COc1ccc2c(c1)c(CCCC(=O)O)c(C)n2C(=O)c1ccc(Cl)cc1` [cms02], for which the inhibition at 50 µM in assay [1] (FRET assay at 50 μM, mean (± SEM), read-out: p-IRE1α inhibition%) was found to be 42.5%; in assay [3] (FRET assay at 50 μM, mean (± SEM), read-out: IRE1α inhibition%) it was 40.3%. Besides, the “p-IRE1a Inhibiton%, individual measurements” value in assay [1] (setting [5]) was 54.5805% and 55.2276% and 56.4075% and 61.6984% and 12.177% and 15.0468%. In assay [3] (setting [5]), the “IRE1a inhibition(%), individual measurements” value was 64.1986% and 50.8974% and 61.5831% and 7.967% and 17.0403%.

As to `COc1ccc2c(c1)c(CCC(=O)O)c(C)n2C(=O)c1ccc(-c2ccccc2)cc1` [IA75], the half-inhibitory concentration (IC50) in assay [1] (setting [6]) is 1.15 µM; in assay [1] (setting [7]), 1.47 µM and 1.15 µM and 0.817 µM; in assay [3] (setting [8]), 0.86 µM; in assay [3] (setting [9]), 1.18 µM and 0.924 µM and 0.476 µM.

With `COc1ccc2c(c1)c(CCC(=O)O)c(C)n2C(=O)C1CC1` [IA84], the IC50 was 1.74 µM in assay [1] (setting [6]); 1.51 µM and 2.54 µM and 1.17 µM in assay [1] (setting [7]); 0.83 µM in assay [3] (setting [8]); 0.703 µM and 1.25 µM and 0.531 µM in assay [3] (setting [9]).

By IC50 is commonly meant the midpoint of a concentration-inhibition curve.

The values above are taken from publication PMC12475274, “Harnessing indole scaffolds to identify small-molecule IRE1α inhibitors modulating XBP1 mRNA splicing” (Nature Communications, 2025).
